Measurements from patent US20070232796A1, “Medical Solution, a Method for Producing Said Medical Solution and Use Thereof” (priority 2004, published 2007).
Entries after “also recorded” stand apart in the source; their conditions may differ.

Test system: Cell Growth
Experiment: Inhibition of Cell Growth (ICG) as marker for cytotoxicity / biological reactivity
Type: cell-based
From the text: FIG. 1 is a diagram showing the relation ship between Inhibition of Cell Growth (ICG) and concentration of 3,4-DGE in a solution.
In order to investigate and come up with the present invention, the present inventors studied the relationship between the different GDPs and came to the conclusion that the GDPs interact according to the reaction formula given above.

## O=CC(=O)C=CC(O)CO (centres unmarked) [3,4-DGE, 3,4-dideoxyglucosone-3-ene]
FIG. 1, ICG used as measure/marker for biological reactivity
  relationship between concentration of 3,4-DGE and Inhibition of Cell Growth (ICG): good dose relation between 3,4-DGE and cytotoxicity; also recorded: dose dependent relationship
Known GDPs: acetaldehyde, formaldehyde, glyoxal, methylglyoxal, 3-DG, 5-HMF
  toxicity compared with the other known GDPs: mast toxic of the known GDPs
